Legend:
Sarcoma cells = experiment: Chemotherapeutic effect on subcutaneously inoculated sarcoma cells in ICR mice (tumor weight, i.p. once a day for 5 days); assay type: in vivo, female ICR mice; settings: for Inhibition rate / Inhibition rate (%) (entry: toxic): once a day for 5 days; for Inhibition rate: tumor weight 5 days after the administration; for Inhibition rate (%) (entry: toxic): 100 mg/kg/day i.p., group of five female ICR mice; for ED30: denominator of MTD/ED30; for ED30 / MTD: doses of the table in mg/kg/day; for ED30 / MTD / Therapeutic index (MTD/ED30): i.p. once a day for 5 days; for MTD: numerator of MTD/ED30; for Therapeutic index (MTD/ED30): ratio MTD/ED30
Description: Chemotherapeutic effect of the organic platinum complex (I) of this invention was investigated as follows.
Sarcoma cells (1.5×10^6 cells) were inoculated subcutaneously at inguinal region of a group of five female mice (ICR mice, five week age). Twenty four hours after the inoculation, a solution of test compound was intraperitoneally administered to the mice once a day for 5 days. The weight of tumor in the mice was measured 5 days after the administration.

[1] = Renal function indices (creatinine and urea in blood) in mice; assay type: in vivo; settings: dose required to induce 100% increase in the life span
Source text: The organic platinum complex of the invention also has advantageous properties such as less toxicity to kidney, remarkedly higher water solubility and is easily transferred into organs in vivo in comparison with known organic platinum complexes.

Compound	Inhibition rate (Sarcoma cells; 3.12 mg/kg/day i.p.)	Inhibition rate (Sarcoma cells; 6.25 mg/kg/day i.p.)	Inhibition rate (Sarcoma cells; 12.5 mg/kg/day i.p.)	Inhibition rate (Sarcoma cells; 25 mg/kg/day i.p.)	Inhibition rate (Sarcoma cells; 50 mg/kg/day i.p.)	Inhibition rate (%) (entry: toxic) (Sarcoma cells)	ED30 (Sarcoma cells)	MTD (Sarcoma cells)	influence on indices of renal functions such as the concentration of creatinine and ueas in blood [1]	Therapeutic index (MTD/ED30) (Sarcoma cells)
CC(=O)NC1C(=O)[O][Pt]2([NH]C3CCCCC3[NH]2)[O]C1=O (stereo not drawn) [Compound 1, [2-(acetylamino)malonato](trans-l-1,2-diaminocyclohexane)platinum (II)]	28.4%	36.0%	52.3%	64.8%	89.4%	Toxic (5/5)	3.6	50	no influences	
CC(=O)NC1(C)C(=O)[O][Pt-2]2([NH2+]C3CCCCC3[NH2+]2)[O]C1=O (stereo not drawn) [Compound 3, [2-(acetylamino)-2-methylmalonato] (trans-l-1,2-diaminocyclohexane) platinum (II)]		26.4%	49.7%	63.5%	80.7%	Toxic (5/5)	7.0	50		7.1
COCCOCC(=O)NC1C(=O)[O][Pt-2]2([NH2+]C3CCCCC3[NH2+]2)[O]C1=O (stereo not drawn) [Compound 2, [2-[[(methoxyethoxy)acetyl]amino]malonato] (trans-l-1,2-diaminocyclohexane)platinum (II)]		17.8%	57.6%	65.4%	80.2%	Toxic (4/5)	6.7	50		7.5

From US4882447A, “Novel organic platinum complex and process for the preparation thereof” (priority 1987, dated 1989)
